What was measured:
[1] = human
[2] = human; remark: listed apart in the source
[3] = human; remark: listed apart in the source
[4] = human; remark: listed apart in the source
[5] = human, serum
[6] = human; remark: listed apart in the source
[7] = human; remark: listed apart in the source
[8] = human; remark: listed apart in the source
[9] = Highest frequency of acute liver toxicity observed during clinical trials, expressed as a percentage. [column '% AIGUE' in source]; details: human
[10] = human, serum, 4383 h
[11] = Highest frequency of moderate liver toxicity observed during clinical trials, expressed as a percentage. [column '% BIOL' in source]; details: human
[12] = human; remark: listed apart in the source
[13] = human; remark: listed apart in the source
[14] = human, serum; remark: listed apart in the source
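For Hepatotoxicity (association with vascular disease) in this document: count of indexed literature references reporting vascular liver injury in humans, e.g. peliosis hepatitis, hepatic veno-occlusive disease or Budd-Chiari syndrome.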
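For Hepatotoxicity (benign tumour) in this document: value is a count of indexed literature references citing a benign tumour confirmed by histopathology.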
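For Hepatotoxicity (choleostasis) in this document: human cholestatic liver injury, shown by histopathology or by peak ALT or AST elevation over alkaline phosphatase ratio below 2, value counts indexed literature reports.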
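For Hepatotoxicity (chronic liver disease) in this document: chronic liver injury confirmed by histopathology or persistently raised serum aminotransferase activity beyond 6 months, value given as the count of indexed literature references.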
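For Hepatotoxicity (cirrhosis) in this document: value is a count of indexed literature references reporting cirrhosis confirmed by histopathology.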
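For Hepatotoxicity (cytolytic) in this document: human cytolytic liver injury, shown by histopathology or by a ratio above 5 of peak ALT or AST elevation to alkaline phosphatase elevation, value counts indexed references.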
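For Hepatotoxicity (granulomatous hepatitis) in this document: value is a count of indexed literature references reporting granulomatous liver disease confirmed by histopathology.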
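For Hepatotoxicity (malignant tumour) in this document: malignant tumour confirmed by histopathology, value gives the count of indexed literature references reporting it.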
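For Hepatotoxicity (severe hepatitis) in this document: human clinical data: severe hepatitis, meaning potentially life-threatening liver failure or clinically observed cases, the value counts how many indexed literature references report it.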
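For Hepatotoxicity (steatosis) in this document: steatosis confirmed by histopathology, value is the count of indexed references.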

| SMILES | Hepatotoxicity (malignant tumour) [1] | Hepatotoxicity (steatosis) [2] | Hepatotoxicity (benign tumour) [3] | Hepatotoxicity (severe hepatitis) [4] | Hepatotoxicity (moderate) [5] | Hepatotoxicity (cytolytic) [6] | Hepatotoxicity (choleostasis) [7] | Hepatotoxicity (granulomatous hepatitis) [8] | Hepatotoxicity (acute) [9] [%] | Hepatotoxicity (chronic liver disease) [10] | Hepatotoxicity (moderate) [11] [%] | Hepatotoxicity (cirrhosis) [12] | Hepatotoxicity (association with vascular disease) [13] | Hepatotoxicity (acute) [14] | Hepatotoxicity (severe hepatitis) ([4]; Liver) | Hepatotoxicity (cytolytic) ([6]; Liver) | Hepatotoxicity (choleostasis) ([7]; Liver) | Hepatotoxicity (granulomatous hepatitis) ([8]; Liver) | Hepatotoxicity (acute) ([9]; Liver) [%] | Hepatotoxicity (moderate) ([11]; Liver) [%] |
| --- | --- | --- | --- | --- | --- | --- | --- | --- | --- | --- | --- | --- | --- | --- | --- | --- | --- | --- | --- | --- |
| CCC(C)C(C)(COC(N)=O)COC(N)=O (stereo not drawn) [MEBUTAMATE] | 0 | 0 | 0 | 0 | 0 | 0 | 1 | 0 | 0 | 0 | 0 | 0 | 0 | 1 |  |  |  |  |  |  |
| CO[C@H]1Cc2c(O)cc(O)cc2O[C@@H]1c1ccc(O)c(O)c1 [MECIADANOL] | 0 | 0 | 0 | 0 | 1 | 0 | 0 | 0 | 0 | 0 | 34.8 | 0 | 0 | 0 |  |  |  |  |  |  |
| Cc1ccc(Cl)c(Nc2ccccc2C(=O)O)c1Cl [MECLOFENAMIC ACID] | 0 | 0 | 0 | 0 | 2 | 0 | 0 | 0 | 0 | 0 | 0 | 0 | 0 | 0 |  |  |  |  |  |  |
| Nc1nc(N)nc(Nc2ccc([As]3SCC(CO)S3)cc2)n1 (stereo not drawn) [MELARSOPROL] | 0 | 0 | 0 | 0 | 3 | 0 | 0 | 0 | 0 | 0 | 1 | 0 | 0 | 0 |  |  |  |  |  |  |
| CC1CCN(CCCC(=O)c2ccc(F)cc2)CC1 [MELPERONE] | 0 | 0 | 0 | 0 | 2 | 0 | 0 | 0 | 0 | 0 | 12 | 0 | 0 | 0 |  |  |  |  |  |  |
| CO[C@@H]1C[C@](C)(O)Cc2cc3c(c(O)c21)C(=O)c1c(O)cc2c(c1C3=O)O[C@@H]1O[C@@]2(C)[C@H](O)[C@@H](N(C)C)[C@@H]1O [MENOGARIL] | 0 | 0 | 0 | 0 | 4 | 0 | 0 | 0 | 0 | 0 | 16.7 | 0 | 0 | 0 |  |  |  |  |  |  |
| O=C1NC(=S)NC(=O)C1C(=O)Nc1ccccc1 [MERBARONE] | 0 | 0 | 0 | 0 | 3 | 0 | 0 | 0 | 3.8 | 0 | 28.6 | 0 | 0 | 1 |  |  |  |  |  |  |
| C[C@@H](O)[C@H]1C(=O)N2C(C(=O)O)=C(S[C@@H]3CN[C@H](C(=O)N(C)C)C3)[C@H](C)[C@H]12 [MEROPENEM] | 0 | 0 | 0 | 0 | 92 | 0 | 0 | 0 | 5.3 | 0 | 48.1 | 0 | 0 | 1 |  |  |  |  |  |  |
| Cc1cc(C)cc(OCC2CNC(=O)O2)c1 (stereo not drawn) [METAXALONE] | 0 | 0 | 0 | 0 | 0 | 0 | 0 | 0 | 0 | 0 | 0 | 0 | 0 | 2 |  |  |  |  |  |  |
| CSCC[C@H](N)C(=O)O [METHIONINE] | 0 | 0 | 0 |  | 1 |  |  |  |  | 0 |  | 0 | 0 | 2 | 0 | 1 | 0 | 0 | 0 | 0 |
| CN1C(CCl)Nc2cc(Cl)c(S(N)(=O)=O)cc2S1(=O)=O (stereo not drawn) [METHYCLOTHIAZIDE] | 0 | 0 | 0 | 0 | 1 | 0 | 0 | 0 | 0 | 0 | 0 | 0 | 0 | 0 |  |  |  |  |  |  |
| Clc1ccc(COC(Cn2ccnc2)c2ccc(Cl)cc2Cl)c(Cl)c1 (stereo not drawn) [MICONAZOLE] | 0 | 0 | 0 | 0 | 2 | 0 | 0 | 0 | 0 | 0 | 0 | 0 | 0 | 0 |  |  |  |  |  |  |

— ChEMBL document CHEMBL3137667, “[Drug-induced liver injury; fourteenth updated edition of the bibliographic database of liver injuries and related drugs]” (Gastroenterol Clin Biol, 2004)
